Measurements: patent publication US11946094B2, “Combination therapies and methods of use thereof” (Augusta University Research Institute, Inc., priority 2017, dated 2024)
Like-named read-outs stand apart in the source and are kept apart here.

System: OVCAR-8 cells
Assay: Drug-siRNA combination screen: 346-compound anticancer library at 100 nM, CCK-8 viability
Conditions: for synergy / antagonism of drug with gene knockdowns, in words: panel of 18 siRNA knockdowns; for number of tested HDACi highly synergistic with the gene knockdown: 12 tested HDACi
[1] = OVCAR-8, drug 100 nM plus siRNA knockdown of each of 18 genes, distance VAB−VA×VB in SD, single gene contributes at most +5 / −5, negative = synergy, positive = antagonism

Description: Comparisons of drug effect were performed using data generated on the same day. A minimum of two replicates was performed with drug library screening and a minimum of three replicates was done for all other tests.
Combinatorial effects were classified using two measures of combinatorial action: 1) the coefficient of drug interaction (CDI), defined as (VAB/(VA×VB)) and 2) the distance in standard deviation (SD) of VAB−(VA×VB). […] In confirmation studies significance was determined using a Student's T-test (two-tailed, unpaired) with p<0.05 indicating significance.
To measure the effect of a gene on drug effect, comparisons were made between high expressers of each gene and the wild type cells exposed to sham reagents.
In theory, CDI<1 is indicative of synergy while CDI>1 is indicative of antagonism or additive effect in a multiplicative model.

Compound	Score (sum of observed SD values for 18 genes) [1]	other results
CN(C)CCOc1ccc(-c2nc(-c3ccncc3)c(-c3ccc4c(c3)CC/C4=N\O)[nH]2)cc1 [SB590885]	27.34 SD	synergy / antagonism of drug with gene knockdowns, in words (OVCAR-8, drug 100 nM): antagonistic with multiple genes
Cc1ccc(C(=O)Nc2ccc(CN3CCN(C)CC3)c(C(F)(F)F)c2)cc1C#Cc1cnc2cccnn12 [Ponatinib]	–	Score (sum of observed SD values for 18 genes): −28.62 SD
C[C@@H](O[C@H]1OCCN(Cc2n[nH]c(=O)[nH]2)[C@H]1c1ccc(F)cc1)c1cc(C(F)(F)F)cc(C(F)(F)F)c1 [Aprepitant]	−23.29 SD	–
CC(C)(C)c1cnc(CSc2cnc(NC(=O)C3CCNCC3)s2)o1 [SNS-032]	-62.71 SD	synergy / antagonism of drug with gene knockdowns, in words (OVCAR-8, drug 100 nM): strong synergies with multiple genes
CC(C)c1cc(-c2n[nH]c(=O)n2-c2ccc3c(ccn3C)c2)c(O)cc1O [Ganetespib]	8.4 SD	–
S100A11: siRNA knocking down S100A11; sense GAACUAGCUGCCUUCACAAtt (SEQ ID NO 27) (sense GAACUAGCUGCCUUCACAANN; antisense UUGUGAAGGCAGCUAGUUCNN; chemistry not given here)	–	number of tested HDACi highly synergistic with the gene knockdown (OVCAR-8): 10 of 12
Nc1ccc(-c2ccc3ncc4ccc(=O)n(-c5cccc(C(F)(F)F)c5)c4c3c2)cn1 [Torin 2]	−37.17 SD	–
CNC(=O)c1cc(COc2nnc(Nc3ccc(Cl)cc3)c3ccoc23)ccn1 [Telatinib]	−5.24 SD	–
C[C@@H]1C[C@H]2[C@@H]3CCC4=CC(=O)C=C[C@]4(C)[C@@]3(F)[C@@H](O)C[C@]2(C)[C@@]1(O)C(=O)CO [Dexamethasone]	−3.28 SD	–
CC#C[C@]1(O)CC[C@H]2[C@@H]3CCC4=CC(=O)CCC4=C3[C@@H](c3ccc(N(C)C)cc3)C[C@@]21C [Mifepristone]	−22.75 SD	–
CCc1c2c(nc3ccc(OC(=O)N4CCC(N5CCCCC5)CC4)cc13)-c1cc3c(c(=O)n1C2)COC(=O)[C@]3(O)CC.Cl [Irinotecan HCI]	−7.65 SD	–
C/C(=C\c1csc(C)n1)[C@@H]1C[C@@H]2O[C@@H]2CCC[C@H](C)[C@H](O)[C@@H](C)C(=O)C(C)(C)[C@@H](O)CC(=O)O1 [Epothilone A]	16.97 SD	–
KLHL5: siRNA knocking down KLHL5; sense CAGGCCGCCUUGAAUUAAAtt (SEQ ID NO 23) (sense CAGGCCGCCUUGAAUUAAANN; antisense UUUAAUUCAAGGCGGCCUGNN; listed as RNA, chemistry not given here)	–	number of tested HDACi highly synergistic with the gene knockdown (OVCAR-8): at least six; number of antagonistic/additive or highly antagonistic compounds with the gene knockdown (OVCAR-8, 346 compounds): Twelve or fewer; number of Aurora Kinase inhibitors with significant synergy with the gene knockdown (OVCAR-8, eleven tested inhibitors): eight of the eleven
CN1CCC(CNc2ccc3ncc(-c4cccc(OC(F)(F)F)c4)n3n2)CC1 [SGI - 1776]	−12.21 SD	–
O=C(O[C@@H]1Cc2c(O)cc(O)cc2O[C@@H]1c1cc(O)c(O)c(O)c1)c1cc(O)c(O)c(O)c1 [Epigallocatechin gallate]	3.64 SD	–
Cc1ccc(F)c(NC(=O)Nc2ccc(-c3cccc4[nH]nc(N)c34)cc2)c1 [Linifanib]	−25.28 SD	–
C[C@H](NC(=O)Cc1cc(F)cc(F)c1)C(=O)N[C@@H]1C(=O)N(C)c2ccccc2-c2ccccc21 [0YO-1027]	−38.72 SD	–
CCCC(CCC)C(=O)[O-].[Na+] [Sodium valproate]	−17.88 SD	–
C[C@]12CC[C@@H]3c4ccc(O)cc4CC[C@H]3[C@@H]1CCC2=O [Estrone]	−21.19 SD	–
CNCc1ccc(-c2[nH]c3cc(F)cc4c3c2CCNC4=O)cc1 [Rucaparib]	−3.34 SD	–

Compound	Score (sum of observed SD values for 18 genes) [1]	other results
Nc1nccc(Oc2ccc(NC(=O)c3c[nH]cc(-c4ccc(F)cc4)c3=O)cc2F)c1Cl [BMS 794833]	−23.46 SD	–
Nc1cc(C(F)(F)F)c(-c2cc(N3CCOCC3)nc(N3CCOCC3)n2)cn1 [Buparlisib]	8.79 SD	–
C=C1/C(=C\C=C2/CCC[C@]3(C)[C@@H]([C@H](C)/C=C/[C@H](C)C(C)C)CC[C@@H]23)C[C@@H](O)C[C@@H]1O [Doxercalciferol]	−0.53 SD	–
Cl.Nc1ccn([C@@H]2O[C@H](CO)[C@@H](O)C2(F)F)c(=O)n1 [Gemcitibine HCI]	35.88 SD	–
O=C(NOCC1CC1)c1ccc(F)c(F)c1Nc1ccc(I)cc1Cl [CI-1040]	−45.66 SD	synergy / antagonism of drug with gene knockdowns, in words (OVCAR-8, drug 100 nM): among the top synergistic compounds
COCCn1c2c([n+](Cc3cnccn3)c1C)C(=O)c1ccccc1C2=O [YM155]	−1.58 SD	–
CCN1CCN(Cc2ccc(-c3cc4c(N[C@H](C)c5ccccc5)ncnc4[nH]3)cc2)CC1 [NVP-AEE788]	−41.08 SD	–
Cn1cc(C2=C(c3cn(C4CCN(Cc5ccccn5)CC4)c4ccccc34)C(=O)NC2=O)c2ccccc21 [Enzastaurin]	−6.53 SD	–
CC1=C2C[C@H]3[C@@H](CC=C4C[C@@H](O)CC[C@@]43C)[C@@H]2CC[C@]12O[C@@H]1C[C@H](C)CN[C@H]1[C@H]2C [Cyclopamine]	3.03 SD	–
Cc1ccc(NC(=O)c2ccc(CN3CCN(C)CC3)cc2)cc1Nc1nc(-c2cccnc2)cs1 [Masitinib]	−4.23 SD	–
C=C(c1ccc(C(=O)O)cc1)c1cc2c(cc1C)C(C)(C)CCC2(C)C [Bexarotene]	−1.35 SD	–
Cc1cccc(Nc2nc(-c3ccncc3)cs2)c1 [STF-62247]	−24.47 SD	–
CC(C)(C)c1cc(NC(=O)Nc2ccc(-c3cn4c(n3)sc3cc(OCCN5CCOCC5)ccc34)cc2)no1 [Quizartinib]	−12.85 SD	–
CCC[C@H](NC(=O)/C(C#N)=C/c1cccc(Br)n1)c1ccccc1 [WP1130]	3.15 SD	–
O=c1cc(N2CCOCC2)oc2c(-c3cccc4c3sc3ccccc34)cccc12 [NU7441]	−10.42 SD	–
SNS-314 Mesylate	−1.05 SD	–
FC(F)c1nc2ccccc2n1-c1nc(N2CCOCC2)nc(N2CCOCC2)n1 [ZSTK474]	-52.94 SD	synergy / antagonism of drug with gene knockdowns, in words (OVCAR-8, drug 100 nM): synergy to the vast majority of genes
CC(C)CC(=O)Nc1[nH]nc2c1CN(C(=O)C1CCN(C)CC1)C2(C)C [PHA-793887]	−42.75 SD	synergy / antagonism of drug with gene knockdowns, in words (OVCAR-8, drug 100 nM): strong synergies with multiple genes
c1ccc2c(-c3cnn4cc(-c5ccc(N6CCNCC6)cc5)cnc34)ccnc2c1 [LDN193189]	−28.37 SD	–
Cn1cc(-c2ccc3nnc(C(F)(F)c4ccc5ncccc5c4)n3n2)cn1 [JNJ−38877605]	2.72 SD	–

Compound	Score (sum of observed SD values for 18 genes) [1]	other results
Cl.Cl.Clc1ccc(Nc2nnc(Cc3ccncc3)c3ccccc23)cc1 [Vatalanib 2HCI]	−3.51 SD	–
Cc1cc(O)c2c(c1)C(=O)c1cccc(O)c1C2=O [Chrysophanol]	−5.16 SD	–
O=C(c1cc(Cc2n[nH]c(=O)c3ccccc23)ccc1F)N1CCN(C(=O)C2CC2)CC1 [Olaparib]	−19.18 SD	–
CC(C)[C@]12O[C@H]1[C@@H]1O[C@]13[C@]1(O[C@H]1C[C@H]1C4=C(CC[C@@]13C)C(=O)OC4)[C@@H]2O [Triptolide]	−15.95 SD	–
Cc1cccc(-c2nn3c(c2-c2ccnc4ccc(C(N)=O)cc24)CCC3)n1 [LY2157299]	−0.82 SD	–
Cc1cccc(-c2[nH]c(C(C)(C)C)nc2-c2ccc3nccnc3c2)n1 [SB 525334]	−32.05 SD	–
CS(=O)(=O)N1CCc2c(-c3cnc(N)nc3)nc(N3CCOCC3)nc21 [CH5132799]	15.96 SD	–
CC(=O)c1c(C)c2cnc(Nc3ccc(N4CCNCC4)cn3)nc2n(C2CCCC2)c1=O [Palbociclib]	−30.45 SD	–
CCC1(c2ccc(N)cc2)CCC(=O)NC1=O (centres unmarked) [Aminoglutethimide]	−9.32 SD	–
Nc1ccc(C(=O)Nc2cccc(-c3nc(N4CCOCC4)c4oc5ncccc5c4n3)c2)cn1 [YM201636]	−32.89 SD	–
CC(c1cc2ccccc2s1)N(O)C(N)=O (centres unmarked) [Zileuton]	−19.64 SD	–
NC(=O)c1ccc(I)c([N+](=O)[O-])c1 [Iniparib]	−21.58 SD	–
Cn1cc(C2=C(c3ccc(Cl)cc3Cl)C(=O)NC2=O)c2ccccc21 [SB216763]	−11.62 SD	–
WYE-354	−13.86 SD	–
CNC(=O)c1ccc(C)c(-n2c(C)cc(OCc3ccc(F)cc3F)c(Br)c2=O)c1 [PH-797804]	-64.86 SD	number of genes (of 18) whose knockdown synergizes with the drug (OVCAR-8, drug 100 nM, siRNA knockdown): 14 genes
Nc1nc(=O)c2c([nH]1)NCC(CNc1ccc(C(=O)N[C@@H](CCC(=O)[O-])C(=O)[O-])cc1)N2C=O.[Ca+2] (some centres unmarked) [Leucovorin Calcium]	1.29 SD	–
CCc1cc(Nc2nccc(-c3c(-c4ccc(OC)c(C(=O)Nc5c(F)cccc5F)c4)nc4ccccn34)n2)c(OC)cc1N1CCC(N2CCN(S(C)(=O)=O)CC2)CC1 [GSK1904529A]	−10.83 SD	–
Cc1ccccc1-n1c(Cn2cnc3c(N)ncnc32)nc2cccc(C)c2c1=O [IC - 87114]	14.65 SD	–
CN(C)C/C=C/C(=O)Nc1cc2c(Nc3ccc(F)c(Cl)c3)ncnc2cc1O[C@H]1CCOC1 [Afatinib]	-54.76 SD	–
O=c1cc(N2CCOCC2)oc2c(-c3ccccc3)cccc12 [LY294002]	−8.41 SD	–
